# Measured values from patent US8273575B2, “Methods for the diagnosis, risk assessment, and monitoring of autism spectrum disorders” (Phenomenome Discoveries Inc., priority 2007, dated 2012).
# Experiments:
# [1] = Plasma carnitine and O-acetylcarnitine levels in longitudinal samples of autistic subjects versus controls (FIG. 4); type: in vivo, human; settings: all ASD subjects taking acetyl-carnitine
# Text: FIG. 4 is a graph illustrating levels of carnitine and O-acetylcarnitine in longitudinal samples collected over the course of one year from individual subjects diagnosed with autism versus controls. Values are control normalized and expressed as mean+/−SEM, n=3 for each child, n=30 for controls, *, p<0.05 vs. control;
# (§1) Sample Collection. Three plasma samples were collected from 15 clinically diagnosed ASD subjects and 12 non-ASD controls over a 12 month period (six month interval between samplings). Four subjects were treated with carnitine (A09, A11, A13, A15). Table 1 outlines the clinical characteristics of the subjects studied. Social cognition scores were determined using methods known in the art.
# (§2) Acetyl-carnitine is not approved nor has it been proven to be effective in ASD. To illustrate the utility of a method of monitoring ASD therapy as disclosed herein, the diagnostic ASD biomarkers described above were quantified in subjects taking acetyl-carnitine supplements. FIG. 4 illustrates the carnitine and acetyl carnitine levels in all of the subjects. […] All of the subjects taking acetyl-carnitine had elevated levels of both carnitine and acetyl-carnitine.
# autism biomarkers = experiment: Monitoring the biochemical efficacy of carnitine supplementation on autism biomarkers in plasma (FIG. 5); type: in vivo, human
# Text: FIG. 5 is a graph illustrating levels of key DHA and AA containing PlsEtn and VLCFA containing PtdEtn in longitudinal samples collected over the course of one year from autistic subjects taking carnitine supplements [n=12 (4×3)] vs. subjects not taking carnitine supplements [n=33 (11×3)] and vs. controls [n=30 (10×3)]. Values control-normalized and expressed as mean+/−SEM of the ratio to PtdEtn 16:0/18:0, *, p<0.05 vs. control, #, p<0.05 vs. autism, no carnitine; and
# as §1
# LC-MS/MS flow injection analyses. Analyses were performed using a linear ion trap mass spectrometer (4000 Q TRAP, Applied Biosystems) coupled with an Agilent 1100 LC system. Sample was prepared by adding 15 μL of internal standard (5 μg/mL of (24-^13C)-Cholic Acid (Cambridge Isotope Laboratories, Andover, Mass.) in methanol) to 120 μL ethyl acetate fraction of each sample. 100 μl of sample was injected by flow injection analysis (FIA), and monitored under negative APCI mode. The method was based on multiple reaction monitoring (MRM) of one parent/fragment transition for each metabolite and (24-^13C)-Cholic Acid. Each transition was scanned for 70 ms. 10% EtOAc in MeOH at a flow rate of 360 μl/min was used as the mobile phase. The source parameters were set as follows: CUR: 10.0, CAD: 8, NC: −4.0, TEM: 400, GS1: 30, GS2: 50, interface heater on. The compound parameters were set as follows: DP: −120.0, EP: −10, NC: −4.0, CE: −40, CXP: −15. A standard curve was generated for all analytes to verify instrument linearity by serial dilution of a healthy normal serum extract with constant concentration of (24-^13C)-Cholic Acid. All samples were analyzed in a randomized blinded manner and were bracketed by known serum standard dilutions. All standard curves had r^2 values >0.98.
# as §2
# Comparison of the plasma levels of the eight most descriptive metabolites between the carnitine+/−autistic subjects and controls, determined that the effect of carnitine on the autism biomarkers was striking (FIG. 5). […] However, the rate of elongation and desaturation of mono- and di-unsaturated fatty acid precursors appear to be unaffected and a compensatory elevation in AA appears to occur.
# [2] = autistic subjects taking carnitine vs not taking and vs controls
smiles,measurement,setting,value
C[N+](C)(C)CC(O)CC(=O)[O-] (centres unmarked) [carnitine],Plasma levels in subjects taking acetyl-carnitine,[1],elevated
same,Levels of AA-PtdEtn (20:4) in subjects taking carnitine,autism biomarkers,significantly elevated
same,Effect on DHA-PlsEtn,autism biomarkers; [2],Complete normalization
same,Effect on DHA-PtdEtn,autism biomarkers; [2],Complete normalization
same,Effect on saturated VLCFA (28:0),autism biomarkers; [2],Complete normalization
same,Effect on the DHA precursor (24:6),autism biomarkers; [2],Complete normalization
same,Effect on 26:3 PdtEtn,autism biomarkers; carnitine supplementation,no significant effect
same,Effect on 28:1 PdtEtn,autism biomarkers; carnitine supplementation,no significant effect
